This is an account of results in patent US9370515B2, “Mixed lineage kinase inhibitors and method of treatments” (CALIFIA BIO, INC., priority 2013, dated 2016).

“Also recorded” adds a separate entry of the source. Where two headings read alike, the source gives them in different places.

For series [1] the following is noted: mice, Goodfellow et al 2013; cited from earlier work.
Series [2] in a line: Blood brain barrier penetration: standard murine pharmacokinetic model, plasma and brain concentrations. The settings on record: mouse; brain concentration 3 hrs after single IV injection 10 mg/kg, CL57 BL/6 mice; read-out: Cbrain 3 hrs. Format: in vivo. The text has this: Compounds disclosed herein may be evaluated in pharmacokinetic assays and models to determine absorption, distribution, metabolism, and excretion parameters. The choice and tailoring of in vitro and ex vivo assays and in vivo models will vary according to the route of administration/formulation, indication under study, properties of test compounds, etc., as well as according to such factors as costs, availability of technology and resources, etc. Such parameters are well known in the fields of pharmacology and drug development. It is within the capacity of one skilled in the art to design and carry out, such work, or to outsource it to a capable third party.
Several compounds disclosed herein were evaluated in a standard murine pharmacokinetic model. […] For ease of analysis compounds were dissolved in 5% DMSO, 40% PEG400, and […] to yield a nominal concentration of 2 mg/mL for intravenous administration. Compounds were administered via a single intravenous (IV) injection in CL57 BL/6 mice at 10 mg/kg in DMSO/PEG400/Saline solution. Three mice in each group were used for blood and brain collection at each time point. Blood samples (300 μL) were collected via the retro-orbital vein predose and at 30, 60 and 180 minutes postdose. Blood samples were placed into tubes containing sodium heparin and centrifuged under refrigerated conditions at 8000 rpm for 6 minutes to separate plasma from the samples. The brain of each animal was collected after the final blood collection. The whole tissue was harvested, excised and rinsed by saline, dried by filter paper, and then placed into one tube per tissue per animal. All samples were stored at −20° C. until bioanalysis. Compound concentrations in plasma and brain homogenate were determined using a high performance liquid chromatography/mass spectrometry (HPLC/MS/MS) methods.

The next series addresses MLK-3 (Homo sapiens, UniProt Q16584). Put plainly: Biochemical assay for the inhibition of kinase activity for MLK-3 (33P-ATP, HOTSPOT filter binding). The settings on record: activated MLK-3 20 nM, ATP 50 μM, myelin basic protein 20 μM, 20 minutes room temperature. The method, boiled down:
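Activated MLK-3 (20 nM) with myelin basic protein (20 μM) in 20 mM Hepes pH 7.5, MgCl2, EGTA, Brij35, BSA, Na3VO4, DTT, 1% DMSO. Started with 33P-ATP at 50 μM ATP, 20 min at room temperature; % activity by HOTSPOT filter binding.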

In series [3] the target is T1, diverse set of kinases (Homo sapiens, UniProt O15111).
T1 construct: IC50 IKKa; other: kinase IKKa
T1 sequence (O15111 1-745): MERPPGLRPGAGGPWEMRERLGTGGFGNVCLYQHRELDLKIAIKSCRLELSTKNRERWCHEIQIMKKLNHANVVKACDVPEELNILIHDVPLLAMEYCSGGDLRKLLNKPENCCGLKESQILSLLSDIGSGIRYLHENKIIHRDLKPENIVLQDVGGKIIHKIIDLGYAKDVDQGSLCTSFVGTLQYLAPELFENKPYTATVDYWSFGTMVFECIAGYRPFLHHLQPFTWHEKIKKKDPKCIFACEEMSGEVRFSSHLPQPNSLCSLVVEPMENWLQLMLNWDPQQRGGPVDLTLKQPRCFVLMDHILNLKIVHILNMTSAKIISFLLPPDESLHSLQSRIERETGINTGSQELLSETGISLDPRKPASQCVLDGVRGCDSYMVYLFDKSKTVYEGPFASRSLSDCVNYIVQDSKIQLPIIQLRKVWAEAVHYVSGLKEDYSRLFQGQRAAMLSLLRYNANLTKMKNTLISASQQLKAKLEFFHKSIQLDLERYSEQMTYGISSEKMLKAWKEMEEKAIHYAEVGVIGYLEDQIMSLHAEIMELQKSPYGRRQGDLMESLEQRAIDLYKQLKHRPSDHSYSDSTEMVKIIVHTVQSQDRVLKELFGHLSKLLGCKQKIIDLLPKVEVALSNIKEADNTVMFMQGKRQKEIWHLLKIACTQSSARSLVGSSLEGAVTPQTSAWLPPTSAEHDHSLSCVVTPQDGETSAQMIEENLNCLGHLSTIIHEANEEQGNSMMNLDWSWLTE
Put plainly: Protein kinase selectivity: IC50 against a diverse set of kinases, compared with URMC-099. Format: biochemical. The settings on record: kinase IKKa. An excerpt: (§1) Protein Kinase Selectivity: MLK-3 inhibitors previously reported in the literature are somewhat promiscuous and inhibit a large number of serine and threonine protein kinases. Compounds of the present invention that show potent inhibition on MLK-3 are very specific for MLK family kinases. […] Journal of Medicinal Chemistry, 2013.

Series [4] concerns the target T2, diverse set of kinases (Homo sapiens, UniProt P24941).
T2 construct: IC50 CDK2; other: kinase CDK2
The series is described as above. Format: biochemical. The settings on record: kinase CDK2.
From the text: as §1

Series [5] deals with T3, diverse set of kinases (Homo sapiens, UniProt P06213).
T3 construct: IC50 IR; other: kinase IR
The series is described as above. Format: biochemical. The settings on record: kinase IR.
From the text: as §1

The target of series [6] is diverse set of kinases (Homo sapiens, UniProt P00519, T315I). The series is described as above. The settings on record: kinase ABL1, read-out: IC50 ABL1(T31SI). Format: biochemical.
From the text: as §1

Series [7] concerns the target T4, diverse set of kinases (Homo sapiens, UniProt O14920).
T4 construct: IC50 IKKb; other: kinase IKKb
T4 sequence (O14920 1-756): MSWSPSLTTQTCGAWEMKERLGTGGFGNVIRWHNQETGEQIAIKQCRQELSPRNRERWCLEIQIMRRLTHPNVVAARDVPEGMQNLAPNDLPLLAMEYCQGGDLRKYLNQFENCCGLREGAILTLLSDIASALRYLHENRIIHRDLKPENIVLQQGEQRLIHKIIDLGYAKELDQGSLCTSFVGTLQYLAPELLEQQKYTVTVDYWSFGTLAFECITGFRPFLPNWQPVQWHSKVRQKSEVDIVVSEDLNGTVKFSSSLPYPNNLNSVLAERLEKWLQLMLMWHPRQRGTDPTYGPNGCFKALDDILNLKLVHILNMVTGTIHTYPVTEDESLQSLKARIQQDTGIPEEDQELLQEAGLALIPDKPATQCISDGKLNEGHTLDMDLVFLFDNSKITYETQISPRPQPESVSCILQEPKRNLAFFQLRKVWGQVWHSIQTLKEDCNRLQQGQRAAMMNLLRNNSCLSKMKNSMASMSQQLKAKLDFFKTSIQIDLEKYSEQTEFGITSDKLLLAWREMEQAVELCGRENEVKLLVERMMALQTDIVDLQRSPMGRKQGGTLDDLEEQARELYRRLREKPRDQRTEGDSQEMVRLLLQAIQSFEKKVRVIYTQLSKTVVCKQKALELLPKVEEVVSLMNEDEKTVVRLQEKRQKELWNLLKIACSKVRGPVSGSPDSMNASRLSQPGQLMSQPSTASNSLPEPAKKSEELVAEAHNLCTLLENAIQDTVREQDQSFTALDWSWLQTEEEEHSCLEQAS
The description is as above. Format: biochemical. The settings on record: kinase IKKb.
From the text: as §1

Series [8] deals with E18 primary hippocampal neurons. The series is described as follows: Neuroprotection from HIV-1 Tat: hippocampal neurons in microfluidic chambers exposed to Tat-treated BV-2 microglia. Format: cell-based. The settings on record: BV-2 microglia treated with 1 μg/ml HIV-1 Tat; for Axonogenesis in the presence of Tat-activated microglia: compound 100 nM, FIG. 1 arrows. The procedure:
FIG. 2 is a graph illustrating the quantification of axon elimination in the presence of HIV tat and certain inhibitors including compounds of the present disclosure. FIG. 3 is a graph illustrating the quantification of axon length in the presence of HIV tat and certain inhibitors including compounds of the present disclosure. Neuroprotection from HIV-1 Tat: E18 primary hippocampal neurons were plated in microfluidic chambers for 7 days in vitro (DIV). These chambers contain a cell body compartment contiguous with a series of 10 um wide, 3 um high, 400 um long microgrooves through which axons grow into a second compartment, fluidically isolated by a hydrostatic pressure gradient. […] Chambers that were exposed to BV-2 microglia treated with Tat alone had almost their entire axonal field destroyed (FIG. 1, brightfield image). […] FIGS. 2 and 3 show quantifications of axon elimination in the presence of HIV tat and Compounds 169, 67, 68 and 175.

MLK-3, sequence (Q16584 whole entry): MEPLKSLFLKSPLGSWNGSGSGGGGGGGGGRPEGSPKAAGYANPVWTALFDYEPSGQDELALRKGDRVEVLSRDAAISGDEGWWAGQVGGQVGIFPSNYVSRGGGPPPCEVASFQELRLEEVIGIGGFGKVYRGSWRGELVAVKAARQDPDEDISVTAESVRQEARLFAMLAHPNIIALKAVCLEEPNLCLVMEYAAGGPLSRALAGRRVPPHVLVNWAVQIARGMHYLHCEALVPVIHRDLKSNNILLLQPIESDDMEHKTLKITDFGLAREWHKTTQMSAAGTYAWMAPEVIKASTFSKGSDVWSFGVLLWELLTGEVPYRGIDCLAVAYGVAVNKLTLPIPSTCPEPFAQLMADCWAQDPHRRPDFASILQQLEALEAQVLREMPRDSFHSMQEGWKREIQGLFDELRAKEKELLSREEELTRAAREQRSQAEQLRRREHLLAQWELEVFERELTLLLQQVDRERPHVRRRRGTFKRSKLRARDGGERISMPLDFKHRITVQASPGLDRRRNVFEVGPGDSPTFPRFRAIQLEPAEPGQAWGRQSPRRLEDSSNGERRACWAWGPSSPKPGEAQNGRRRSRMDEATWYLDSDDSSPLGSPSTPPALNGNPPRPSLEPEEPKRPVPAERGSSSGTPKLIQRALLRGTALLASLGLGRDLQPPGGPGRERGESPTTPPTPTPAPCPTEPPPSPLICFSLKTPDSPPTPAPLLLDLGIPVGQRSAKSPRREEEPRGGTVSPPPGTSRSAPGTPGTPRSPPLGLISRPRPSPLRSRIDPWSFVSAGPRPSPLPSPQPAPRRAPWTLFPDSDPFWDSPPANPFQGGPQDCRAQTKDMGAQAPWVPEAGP
T3 sequence (P06213 whole entry): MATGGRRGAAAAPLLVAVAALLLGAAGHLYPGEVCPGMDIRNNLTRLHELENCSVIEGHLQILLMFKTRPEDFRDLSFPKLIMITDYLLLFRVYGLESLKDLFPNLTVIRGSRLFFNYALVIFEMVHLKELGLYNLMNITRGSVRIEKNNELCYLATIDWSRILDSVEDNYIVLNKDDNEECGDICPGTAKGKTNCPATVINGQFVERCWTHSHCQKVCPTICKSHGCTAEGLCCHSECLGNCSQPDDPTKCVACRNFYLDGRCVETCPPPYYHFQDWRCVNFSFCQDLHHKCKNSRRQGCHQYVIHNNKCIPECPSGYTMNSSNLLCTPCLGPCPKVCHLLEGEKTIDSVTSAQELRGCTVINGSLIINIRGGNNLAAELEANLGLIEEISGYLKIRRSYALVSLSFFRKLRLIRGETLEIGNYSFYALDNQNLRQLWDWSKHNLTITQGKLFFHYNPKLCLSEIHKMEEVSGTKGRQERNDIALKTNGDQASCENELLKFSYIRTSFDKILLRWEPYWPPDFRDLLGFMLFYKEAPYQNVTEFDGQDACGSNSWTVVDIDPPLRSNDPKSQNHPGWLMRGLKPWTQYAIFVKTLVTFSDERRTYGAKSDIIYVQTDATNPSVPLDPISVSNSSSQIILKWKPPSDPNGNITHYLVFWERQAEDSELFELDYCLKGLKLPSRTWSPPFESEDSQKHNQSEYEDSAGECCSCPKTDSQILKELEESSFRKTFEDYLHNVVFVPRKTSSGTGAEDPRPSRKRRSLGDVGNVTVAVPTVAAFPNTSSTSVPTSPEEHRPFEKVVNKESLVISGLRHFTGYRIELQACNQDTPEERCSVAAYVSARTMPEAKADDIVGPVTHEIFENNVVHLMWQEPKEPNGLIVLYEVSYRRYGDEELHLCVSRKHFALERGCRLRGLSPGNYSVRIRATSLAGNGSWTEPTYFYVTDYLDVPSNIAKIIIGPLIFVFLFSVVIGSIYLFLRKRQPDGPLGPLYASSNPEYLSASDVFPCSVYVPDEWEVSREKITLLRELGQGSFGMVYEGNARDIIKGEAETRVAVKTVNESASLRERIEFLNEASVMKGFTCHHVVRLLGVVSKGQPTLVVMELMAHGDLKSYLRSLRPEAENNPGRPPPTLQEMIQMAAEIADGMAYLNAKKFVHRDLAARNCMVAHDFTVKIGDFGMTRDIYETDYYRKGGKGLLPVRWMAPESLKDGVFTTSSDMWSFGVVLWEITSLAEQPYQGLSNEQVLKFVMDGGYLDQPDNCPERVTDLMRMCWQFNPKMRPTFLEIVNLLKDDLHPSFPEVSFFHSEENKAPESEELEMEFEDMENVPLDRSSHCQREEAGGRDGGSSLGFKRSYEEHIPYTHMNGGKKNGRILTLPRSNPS

Turning to `CCSCc1ccc2c(c1)c1c3c(c4c5cc(CSCC)ccc5n5c4c1n2[C@H]1C[C@](O)(C(=O)OC)[C@]5(C)O1)CNC3=O` [CEP-1347], the “CNS / blood brain barrier penetration” value in [1] is recorded as “very poor blood brain barrier penetration; also recorded: poor CNS penetration”.

What is called IC50 is the concentration that gives 50% inhibition. In the case of `COc1ccc(Nc2ccc3ncc(-c4cc5ccccc5s4)n3n2)cc1OC` [Compound 12, 3-(benzo[b]thiophen-2-yl)-N-(3,4-dimethoxyphenyl)imidazo[1,2-b]pyridazin-6-amine], the concentration at 3 h in series [2] is 1280 ng/g. For the same compound, the concentration for half-maximal inhibition (IC50) at MLK-3 was 0.1 to 0.5 µM; against diverse set of kinases [3], more than 10 µM; against diverse set of kinases [4], 19.4 µM; at diverse set of kinases [5] it was more than 10 µM; at diverse set of kinases [6], more than 10 µM; against diverse set of kinases [7] it was more than 10 µM.

Consider `COc1ccc(Nc2ccc3ncc(-c4cc5cc(OC)c(OC)cc5s4)n3n2)cc1OC` [Compound 67, 3-(5,6-dimethoxybenzo[b]thiophen-2-yl)-N-(3,4-dimethoxyphenyl)imidazo[1,2-b]pyridazin-6-amine], for which the concentration at 3 h in series [2] is 566 ng/g. The IC50 is less than 0.1 µM on MLK-3; more than 10 µM against diverse set of kinases [3]; more than 10 µM on diverse set of kinases [4]; more than 10 µM against diverse set of kinases [5]; more than 10 µM on diverse set of kinases [6]; more than 10 µM against diverse set of kinases [7].

As for `COc1ccc(Nc2ccc3ncc(-c4cc5cccc(OC)c5s4)n3n2)cc1OC` [Compound 68, 3-(7-methoxybenzo[b]thiophen-2-yl)-N-(3,4-dimethoxyphenyl)imidazo[1,2-b]pyridazin-6-amine], the concentration at 3 h in [2] was determined as 1550 ng/g. Further, the IC50 was less than 0.1 µM at MLK-3; more than 10 µM on diverse set of kinases [3]; more than 10 µM against diverse set of kinases [4]; more than 10 µM on diverse set of kinases [5]; more than 10 µM at diverse set of kinases [6]; more than 10 µM against diverse set of kinases [7]. The “Axonogenesis in the presence of Tat-activated microglia” value in series [8] (listed as Compound 68) is “continued axonogenesis”; in series [8] (listed as compound 68) it was “promoted continued axonogenesis”.

Take `O[C@H]1CC[C@H](Nc2ccc3ncc(-c4cc5ccccc5s4)n3n2)CC1` [Compound 105, trans-4-(3-(benzo[b]thiophen-2-yl)imidazo[1,2-b]pyridazin-6-ylamino)cyclohexanol]: the IC50 at MLK-3 is 0.1 to 0.5 µM; at diverse set of kinases [3], more than 10 µM; on diverse set of kinases [4], 1.03 µM; against diverse set of kinases [5], more than 10 µM; on diverse set of kinases [6], more than 10 µM; against diverse set of kinases [7] it was more than 10 µM.

`COc1cc2cc(-c3cnc4ccc(N[C@H]5CC[C@H](O)CC5)nn34)sc2cc1OC` [Compound 169, trans-4-(3-(5,6-dimethoxybenzo[b]thiophen-2-yl)imidazo[1,2-b]pyridazin-6-ylamino)cyclohexanol]: the IC50 was less than 0.1 µM on MLK-3; more than 10 µM at diverse set of kinases [3]; 8.26 µM on diverse set of kinases [4]; more than 10 µM against diverse set of kinases [5]; more than 10 µM on diverse set of kinases [6]; more than 10 µM at diverse set of kinases [7].

In the case of `COc1cccc2cc(-c3cnc4ccc(N[C@H]5CC[C@H](O)CC5)nn34)sc12` [Compound 170, trans-4-(3-(7-methoxybenzo[b]thiophen-2-yl)imidazo[1,2-b]pyridazin-6-ylamino)cyclohexanol], the concentration for half-maximal inhibition (IC50) at MLK-3 was less than 0.1 µM; against diverse set of kinases [3], more than 10 µM; on diverse set of kinases [4], more than 10 µM; on diverse set of kinases [5], more than 10 µM; at diverse set of kinases [6] it was more than 10 µM; on diverse set of kinases [7], more than 10 µM.

In the case of `COc1cc2cc(-c3cnc4ccc(N(C)[C@H]5CC[C@H](OC)CC5)nn34)sc2cc1OC` [Compound 175, 3-(5,6-dimethoxybenzo[b]thiophen-2-yl)-N-(trans-4-methoxycyclohexyl)-N-methylimidazo[1,2-b]pyridazin-6-amine], in [2], the concentration at 3 h was found to be 1880 ng/g. In addition, the 50% inhibitory concentration (IC50) at MLK-3 is less than 0.1 µM.

In the case of `CN1CCN(Cc2ccc(-c3cnc4[nH]cc(-c5ccc6[nH]ccc6c5)c4c3)cc2)CC1` [URMC-099, reference compound], in series [8] (test compounds 100 nM, 18 hours), the “Protection of the axon field” value was “protected the axon field”. Also, the IC50 on diverse set of kinases [3] was 0.591 µM; against diverse set of kinases [4] it was 1.18 µM; against diverse set of kinases [5], 0.2 µM; on diverse set of kinases [6] (read-out: IC50 ABL1) it was 0.003 µM; on diverse set of kinases [7] it was 0.257 µM.
